# Test system: IgE antibodies from patients
# Assay: Wheat epitope mapping (2): overlapping 10-amino-acid peptide fragments shifted by one amino acid;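 for Rank of partial sequence as epitope binding to IgE antibody: key = sequence deemed particularly important within the common 15-residue sequence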;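 for epitope sequence binding to IgE antibody, rank (Key/Preferably/More preferably): key of grades: preferably = shorter partial sequence still acting as epitope; more preferably = sequence improving IgE binding; key = particularly important sequence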
# Assay type: binding, human
# Method in brief: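 Residual binding was banded as <30% none, 30–<50% poor, 50–<70% somewhat poor and ≥70% retained, relative to the parent overlapping sequence set to 100%. Values were chemiluminescent IgE signals from patient sera after subtracting secondary-antibody-only controls. The peptides were spot-synthesised 10-mers shifted by one amino acid.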
# [1] = serum of patient P36 (WDEIA), sequence without X
# [2] = serum of patient P8 (WDEIA), sequence without X
# [3] = serum of patient P17 (WDEIA), sequence without X
# [4] = serum of patient P34 (WDEIA), sequence without X
# [5] = serum of patient P50 (child, general immediate type allergy to wheat), sequence without X
# [6] = serum of patient P2 (WDEIA), partial sequence
# [7] = serum of patient G2 (adult, general immediate type allergy to wheat), partial sequence
# [8] = serum of patient P32 (WDEIA), sequence without X
# [9] = serum of patient P21 (WDEIA), sequence without X
substance,measurement,setting,value
1863 (VIAEYTVRTL; REGION 1..10: note = epitope) [compound 1863],"epitope sequence binding to IgE antibody, rank (Key/Preferably/More preferably)",serum of patient P25 (WDEIA),Key
2390 (VTEIV; REGION 1..5: note = epitope) [compound 2390],"Epitope sequence binding to IgE antibody, rank of the sequence (Key/Preferably/More preferably)","serum of patient P33 (WDEIA), sequence without X",Key
1492 (YLQPQQPISQ; REGION 1..10: note = epitope) [compound 1492],Rank of partial sequence as epitope binding to IgE antibody,[1],Preferably
2274 (DKRVIERFEK; REGION 1..10: note = epitope) [compound 2274],"Epitope sequence binding to IgE antibody, rank of the sequence (Key/Preferably/More preferably)",[2],Preferably
1796 (SGKELEALPK; REGION 1..10: note = epitope) [compound 1796],"epitope sequence binding to IgE antibody, rank (Key/Preferably/More preferably)",serum of patient P15 (WDEIA),Preferably
2623 (SAKPLL; REGION 1..6: note = epitope) [compound 2623],"Epitope sequence binding to IgE antibody, rank of the sequence","serum of patient G3 (adult, general immediate type allergy to wheat), partial sequence",Preferably
1430 (YLQPQQPIS; REGION 1..9: note = epitope) [compound 1430],Rank of partial sequence as epitope binding to IgE antibody,"serum of patient P15 (WDEIA), sequence without X",Preferably
1539 (LVQQQQFLG; REGION 1..9: note = epitope) [compound 1539],Rank of partial sequence as epitope binding to IgE antibody,[3],More preferably
2282 (IDKRVIER; REGION 1..8: note = epitope) [compound 2282],"Epitope sequence binding to IgE antibody, rank of the sequence (Key/Preferably/More preferably)","serum of patient P18 (WDEIA), sequence without X",Key
2241 (RLLRGIRN; REGION 1..8: note = epitope) [compound 2241],"Epitope sequence binding to IgE antibody, rank of the sequence (Key/Preferably/More preferably)",[4],Key
2288 (KRVIERF; REGION 1..7: note = epitope) [compound 2288],"Epitope sequence binding to IgE antibody, rank of the sequence (Key/Preferably/More preferably)","serum of patient P27 (WDEIA), sequence without X",Key
1372 (QPLPPQQQ; REGION 1..8: note = epitope) [compound 1372],"Epitope sequence binding to IgE antibody, rank of the sequence","serum of patient P4 (WDEIA), sequence without X",Key
1787 (KEVSSYLK; REGION 1..8: note = epitope) [compound 1787],"epitope sequence binding to IgE antibody, rank (Key/Preferably/More preferably)","serum of patient G9 (adult, general immediate type allergy to wheat)",Key
1418 (YLQPQQPISQ; REGION 1..10: note = epitope) [compound 1418],"Epitope sequence binding to IgE antibody, rank of the sequence","serum of patient P9 (WDEIA), sequence without X",Preferably
1865 (TVRTLQR; REGION 1..7: note = epitope) [compound 1865],"epitope sequence binding to IgE antibody, rank (Key/Preferably/More preferably)",serum of patient P26 (WDEIA),Key
2248 (IRNYRVAI; REGION 1..8: note = epitope) [compound 2248],"Epitope sequence binding to IgE antibody, rank of the sequence (Key/Preferably/More preferably/Further preferably)",[5],Key
1560 (QQQFLGQQ; REGION 1..8: note = epitope) [compound 1560],Rank of partial sequence as epitope binding to IgE antibody,[5],Key
2497 (QVSF; REGION 1..4: note = epitope) [compound 2497],"Epitope sequence binding to IgE antibody, rank of the sequence","serum of patient P7 (WDEIA), partial sequence",Key
1254 (PIQQQP; REGION 1..6: note = epitope) [compound 1254],"Epitope sequence binding to IgE antibody, rank of the sequence",[1],Key
2630 (LASLSK; REGION 1..6: note = epitope) [compound 2630],"Epitope sequence binding to IgE antibody, rank of the sequence","serum of patient G9 (adult, general immediate type allergy to wheat), partial sequence",Key
1964 (QQQFPGQQ; REGION 1..8: note = epitope) [compound 1964],"epitope sequence binding to IgE antibody, rank (Key/Preferably/More preferably)",serum of patient P33 (WDEIA),More preferably
2614 (AKPLL; REGION 1..5: note = epitope) [compound 2614],"Epitope sequence binding to IgE antibody, rank of the sequence",[6],Key
1853 (TVRTLQR; REGION 1..7: note = epitope) [compound 1853],"epitope sequence binding to IgE antibody, rank (Key/Preferably/More preferably)",serum of patient P17 (WDEIA),Preferably
2528 (SSQVSF; REGION 1..6: note = epitope) [compound 2528],"Epitope sequence binding to IgE antibody, rank of the sequence",[7],Key
1790 (SGKELE; REGION 1..6: note = epitope) [compound 1790],"epitope sequence binding to IgE antibody, rank (Key/Preferably/More preferably)",serum of patient P3 (WDEIA),Key
2436 (WSGKTE; REGION 1..6: note = epitope) [compound 2436],"Epitope sequence binding to IgE antibody, rank of the sequence (Key/Preferably/More preferably)","serum of patient P26 (WDEIA), sequence without X",Key
1823 (LPKFL; REGION 1..5: note = epitope) [compound 1823],"epitope sequence binding to IgE antibody, rank (Key/Preferably/More preferably)",serum of patient P35 (WDEIA),Key
2291 (LGGIDK; REGION 1..6: note = epitope) [compound 2291],"Epitope sequence binding to IgE antibody, rank of the sequence (Key/Preferably/More preferably)",[4],Key
1557 (QVPLVQQQQF; REGION 1..10: note = epitope) [compound 1557],Rank of partial sequence as epitope binding to IgE antibody,[5],More preferably
1341 (NRRALR; REGION 1..6: note = epitope) [compound 1341],"Epitope sequence binding to IgE antibody, rank of the sequence",[8],Key
1896 (VPLVQQQ; REGION 1..7: note = epitope) [compound 1896],"epitope sequence binding to IgE antibody, rank (Key/Preferably/More preferably)",serum of patient P2 (WDEIA),Preferably
1671 (YNPDKVPF; REGION 1..8: note = epitope) [compound 1671],Rank of partial sequence as epitope binding to IgE antibody,"serum of patient G4 (adult, general immediate type allergy to wheat), sequence without X",Key
2385 (VTEI; REGION 1..4: note = epitope) [compound 2385],"Epitope sequence binding to IgE antibody, rank of the sequence (Key/Preferably/More preferably)","serum of patient P29 (WDEIA), sequence without X",Key
2246 (SRLLR; REGION 1..5: note = epitope) [compound 2246],"Epitope sequence binding to IgE antibody, rank of the sequence (Key/Preferably/More preferably/Further preferably)",[5],Key
2707 (YKIGGIGT; REGION 1..8: note = epitope) [compound 2707],"Epitope sequence binding to IgE antibody, rank of the sequence","serum of patient P8 (WDEIA), partial sequence",Key
1234 (PQQPP; REGION 1..5: note = epitope) [compound 1234],"Epitope sequence binding to IgE antibody, rank of the sequence","serum of patient P14 (WDEIA), sequence without X",Key
1394 (QPLP; REGION 1..4: note = epitope) [compound 1394],"Epitope sequence binding to IgE antibody, rank of the sequence",[9],Key
1663 (YNPDKVPFV; REGION 1..9: note = epitope) [compound 1663],Rank of partial sequence as epitope binding to IgE antibody,"serum of patient G2 (adult, general immediate type allergy to wheat), sequence without X",Preferably
1369 (QQPLPPQQ; REGION 1..8: note = epitope) [compound 1369],"Epitope sequence binding to IgE antibody, rank of the sequence (Key/Preferably/More preferably/Further preferably)","serum of patient P2 (WDEIA), sequence without X",Preferably
1783 (KVGYNP; REGION 1..6: note = epitope) [compound 1783],"epitope sequence binding to IgE antibody, rank (Key/Preferably/More preferably)","serum of patient G4 (adult, general immediate type allergy to wheat)",Key
1417 (QQPISQQQAQ; REGION 1..10: note = epitope) [compound 1417],"Epitope sequence binding to IgE antibody, rank of the sequence",[2],Key
2606 (QLVQQL; REGION 1..6: note = epitope) [compound 2606],"Epitope sequence binding to IgE antibody, rank of the sequence","serum of patient G5 (adult, general immediate type allergy to wheat), partial sequence",Key
2703 (YKIGGIGTV; REGION 1..9: note = epitope) [compound 2703],"Epitope sequence binding to IgE antibody, rank of the sequence","serum of patient P3 (WDEIA), partial sequence",Preferably
1213 (PIQQQPQPFP; REGION 1..10: note = epitope) [compound 1213],"Epitope sequence binding to IgE antibody, rank of the sequence","serum of patient P7 (WDEIA), sequence without X",Preferably
2737 (KIGG; REGION 1..4: note = epitope) [compound 2737],"Epitope sequence binding to IgE antibody, rank of the sequence","serum of patient P30 (WDEIA), partial sequence",Key
1852 (YTVRTLQRT; REGION 1..9: note = epitope) [compound 1852],"epitope sequence binding to IgE antibody, rank (Key/Preferably/More preferably)",serum of patient P17 (WDEIA),More preferably
1311 (NVEN; REGION 1..4: note = epitope) [compound 1311],"Epitope sequence binding to IgE antibody, rank of the sequence","serum of patient P10 (WDEIA), sequence without X",Key
1698 (KEAANFT; REGION 1..7: note = epitope) [compound 1698],Rank of partial sequence as epitope binding to IgE antibody,[9],More preferably
1320 (NVEN; REGION 1..4: note = epitope) [compound 1320],"Epitope sequence binding to IgE antibody, rank of the sequence",[3],Key
2677 (YKGPTL; REGION 1..6: note = epitope) [compound 2677],"Epitope sequence binding to IgE antibody, rank of the sequence","serum of patient P12 (WDEIA), partial sequence",Key
2395 (TEIV; REGION 1..4: note = epitope) [compound 2395],"Epitope sequence binding to IgE antibody, rank of the sequence (Key/Preferably/More preferably)",[4],Key
1701 (EAANFT; REGION 1..6: note = epitope) [compound 1701],Rank of partial sequence as epitope binding to IgE antibody,"serum of patient P25 (WDEIA), sequence without X",Key
1477 (YLQPQQPISQ; REGION 1..10: note = epitope) [compound 1477],Rank of partial sequence as epitope binding to IgE antibody,[8],Preferably
2495 (FQPSQLNPQ; REGION 1..9: note = epitope) [compound 2495],"Epitope sequence binding to IgE antibody, rank of the sequence",[6],Key
1485 (SQQQA; REGION 1..5: note = epitope) [compound 1485],Rank of partial sequence as epitope binding to IgE antibody,[4],Key
1288 (LPRS; REGION 1..4: note = epitope) [compound 1288],"Epitope sequence binding to IgE antibody, rank of the sequence","serum of patient P52 (child, general immediate type allergy to wheat), sequence without X",Key
2531 (FQPSQLN; REGION 1..7: note = epitope) [compound 2531],"Epitope sequence binding to IgE antibody, rank of the sequence",[7],Key
1383 (PPQQQ; REGION 1..5: note = epitope) [compound 1383],"Epitope sequence binding to IgE antibody, rank of the sequence","serum of patient P12 (WDEIA), sequence without X",Key

# Reference: US20240393292A1, “ALLERGY ANTIGEN AND EPITOPE THEREOF” (HOYU CO., LTD., priority 2019, published 2024)
